Test results taken from patent US20220233535A1, “USE OF INHIBITORS OF YAP/TAZ FOR THE TREATMENT OF CANCER” (Georgetown University, priority 2019, published 2022).
Where a name gives a salt, the structure may show the parent alone.

Tests used:
Assay type in all cases: cell-based
[1] = tested on: pERK (ERK phosphorylation); test: Western blot analysis of pERK levels in SN12C cells treated with inhibitors/compounds; details: for pERK levels in shY/T cells with increasing concentrations: HCl 1 h 0-12 mM, BAPTA 3 h 0-13 μM, Baf 3 h 0-0.5 μM; for pERK levels in shY/T cells: western blot; for pERK levels in Ctrl cells: CaCl2 2 hours 0, 0.5, 1, 2 mM (FIG. 7K), bicarbonate (FIG. 8K)
Experimental: (§1) Cells were grown for 24 hours in serum-free medium in the presence of various inhibitors unless indicated otherwise. After a brief wash with cold PBS, cells were lysed in urea buffer (9.5 M urea, 2% 3-[(3-cholamidopropyl)dimethylammonio]-1-propanesulfonate (CHAPS)), adjusted to similar concentrations, mixed with 6× sodium dodecyl sulfate (SDS) loading dye, heated at 95° C. for 10 minutes, and subjected to SDS-polyacrylamide gel electrophoresis and semi-dry transferring to polyvinylidene fluoride (PVDF) membranes. For analysis of oxidative phosphorylation (OXPHOS) complexes, 2×10^7 Ctrl and shY/T cells were harvested and either saved as whole cell extract (WCE) or processed using the Mitochondria Isolation Kit for cultured cells according to the manufacturer's instructions (Thermo Fisher Scientific). The WCE and mitochondrial-enriched fraction were resuspended in radioimmunoprecipitation assay (RIPA) buffer for western blot analysis.

[2] = tested on: Ctrl and shY/T SN12C cells; test: Lysosome inhibitor treatment of Ctrl and shY/T cells under different nutrient conditions; details: bafilomycin 24 hours, chloroquine 3 days, −Glc or −Gln medium
Experimental: Nutrient replete conditions received 11.1 mM glucose (Millipore Sigma) and 2 mM glutamine (Lonza, Benicia, Calif.) and deprivation conditions lacked or contain reduced amount of their respective nutrient as indicated. For SC4 cells, all medium in nutrient deprivation studies contained a base of DMEM without glucose or glutamine (#D5030, Millipore Sigma) and supplemented with sodium pyruvate and sodium bicarbonate to levels in standard DMEM formulation. For conditions with glucose or glutamine, 5.6 mM glucose (Millipore Sigma) and/or 4 mM glutamine (Lonza) were added. […] Percent survival was calculated based on the sequential measurements of red fluorescent protein (RFP) fluorescence (filter range 553-574 nm) at the initiation and end of treatment using the Synergy™ Hybrid Multi-Mode Microplate Reader (BioTek, Winooski, Vt.). […]
Cells were plated at optimized seeding densities to reach 60-70% confluence on the next day, at which point the media were replaced with serum-free medium containing Dox and serially diluted compounds or vehicle control. […] After incubation for indicated time, cell viability was measured using the CellTiter-Glo Luminescence Cell Viability assay (Promega) or ATPlite Luminescence Assay (Perkin Elmer) for FIG. 1B. Percent viability for each cell lines was calculated based on vehicle control.

[3] = tested on: pAKT (AKT phosphorylation); test: Western blot analysis of pAKT levels in SN12C cells; details: for pAKT levels in Ctrl cells: Ctrl SN12C cells treated overnight, western blot
Experimental: as §1

[4] = tested on: Ctrl and shY/T SN12C cells; test: Nutrient deprivation experiments, percent change in RFP fluorescence (proliferation and survival); details: 3 days; for proliferation under nutrient-replete conditions: Ctrl and shY/T SN12C; for proliferation under nutrient-replete conditions / Glc- and Gln-starvation-induced cell death in shY/T cells: GSH 0.3 mM or EGF 1 μg/ml; for Glc- and Gln-starvation-induced cell death in shY/T cells: shY/T SN12C
Experimental: For SN12C cells, all medium in nutrient deprivation studies contained a base of RPMI salt mix (0.42 mM Ca(NO3)2.4H2O, 0.41 mM MgSO4, 5.4 mM KCl, 23.8 mM NaHCO3, 102.7 mM NaCl, and 5.6 mM Na2HPO4), RPMI 1640 vitamins solution (Millipore Sigma, St. Louis, Mo.), MEM amino acids solution (ThermoFisher Scientific), and MEM non-essential amino acids solution (Sigma). Nutrient replete conditions received 11.1 mM glucose (Millipore Sigma) and 2 mM glutamine (Lonza, Benicia, Calif.) and deprivation conditions lacked or contain reduced amount of their respective nutrient as indicated. For SC4 cells, all medium in nutrient deprivation studies contained a base of DMEM without glucose or glutamine (#D5030, Millipore Sigma) and supplemented with sodium pyruvate and sodium bicarbonate to levels in standard DMEM formulation. For conditions with glucose or glutamine, 5.6 mM glucose (Millipore Sigma) and/or 4 mM glutamine (Lonza) were added. Reduced cellular glutathione (GSH) (Alfa Aesar, Haverhill, Mass.) and epidermal growth factor (EGF) (Millipore Sigma) were used at final concentrations of 0.3 mM and 1 μg/ml, respectively. Percent survival was calculated based on the sequential measurements of red fluorescent protein (RFP) fluorescence (filter range 553-574 nm) at the initiation and end of treatment using the Synergy™ Hybrid Multi-Mode Microplate Reader (BioTek, Winooski, Vt.). A one-way ANOVA with Sidak's multiple comparison test was used to calculate significance for all nutrient deprivation experiments.

shY/T SN12C cells [5] = test: Intracellular calcium assay; details: shY/T SN12C grown overnight with 0 or 0.3 μM bafilomycin
Experimental: Cells were grown for indicated time in serum-free medium, washed with ice-cold PBS, collected in 100 mM Tris pH 7.5 buffer using cell scraper, and processed using the Calcium Assay Kit (Cayman Chemicals) according to the manufacturer's instructions. The calcium concentrations were normalized to the protein concentrations determined using Bradford Protein Assay (Bio-Rad).

shY/T SN12C cells [6] = test: Media pH measurements; details: shY/T SN12C grown overnight with 0 or 0.3 μM bafilomycin
Experimental: Cells were plated at the same time with optimized seeding densities that ensure all cell lines to reach 80% confluence at the time of measurement. Medium supernatant was collected and measured using the Thermo Scientific™ Orion™ 3-Star Benchtop pH Meter after calibration.

[7] = shY/T SN12C cells treated overnight

Cl [HCl]
pERK levels in shY/T cells with increasing concentrations ([1]; shY/T SN12C): reduced pERK levels in a dose-dependent manner

CCN(CC)CCCC(C)Nc1ccnc2cc(Cl)ccc12 (centres unmarked) [chloroquine]
sensitivity of NF2-mutant cells to lysosomal inhibition upon YAP/TAZ depletion [2]: increased the sensitivity of NF2-mutant cells to lysosomal inhibition, especially under nutrient-deprived conditions

COc1ccc2cc(-c3cc(-c4cc(C(F)(F)F)ccc4F)nn3[C@@H](C)c3ccc(C(=O)NCCC(=O)O)cc3)ccc2c1 [GRA-1]
pERK levels in shY/T cells [1, 7]: none of the GPCR inhibitors reduced ERK phosphorylation

O=S(=O)(NCCNC/C=C/c1ccc(Br)cc1)c1cccc2cnccc12 [H-89]
pERK levels in shY/T cells, combination of PKA inhibitor H-89 and EPAC inhibitor HJC ([1]; shY/T SN12C cells treated overnight, FIG. 8E): synergizes with EPAC inhibitor HJC in reducing pERK levels
pERK levels in shY/T cells [1, 7]: specifically inhibited ERK phosphorylation
pAKT levels in Ctrl cells [3]: without also blocking pAKT

O=C(O)CN(CC(=O)O)c1ccccc1OCCOc1ccccc1N(CC(=O)O)CC(=O)O [BAPTA]
pERK levels in shY/T cells with increasing concentrations ([1]; shY/T SN12C): reduced pERK levels in a dose-dependent manner

CNC(=O)c1cc(Oc2ccc(NC(=O)Nc3ccc(Cl)c(C(F)(F)F)c3)cc2)ccn1 [Sorafenib]
pERK levels in shY/T cells [1, 7]: inhibited pERK levels
pAKT levels in Ctrl cells [3]: did not reduce pAKT levels

N[C@@H](CCC(=O)N[C@@H](CS)C(=O)NCC(=O)O)C(=O)O [GSH, glutathione]
Glc- and Gln-starvation-induced cell death in Ctrl cells ([4]; Ctrl SN12C, −Glc or −Gln, GSH 0.3 mM): had no effect
proliferation under nutrient-replete conditions [4]: did not affect the proliferation
Glc- and Gln-starvation-induced cell death in shY/T cells ([4]; −Glc or −Gln): significantly inhibited

CC(Sc1nc2ccccc2[nH]1)C(=O)N/N=C/c1cc(Br)ccc1O (centres unmarked) [KH7]
bicarbonate-raised pERK levels in Ctrl cells ([1]; Ctrl cells, bicarbonate plus KH7, FIG. 8K): blocked by KH7
pERK levels in shY/T cells [1, 7]: drastically inhibited pERK levels
pAKT levels in Ctrl cells [3]: not pAKT

Cl.c1ccc(C2CCCC2NC2=NCCCCCCCCCCC2)cc1 (centres unmarked) [MDL 12330A]
ERK phosphorylation, tmAC activator/inhibitor alone or in combination ([1]; overnight, FIG. 8K): no effect on ERK phosphorylation

EGF: epidermal growth factor (NSDSECPLSHDGYCLHDGVCMYIEALDKYACNCVVGYIGERCQYRDLKWWELR; Epidermal growth factor; UniProt P01133 971-1023, looked up)
proliferation under nutrient-replete conditions [4]: allowed shY/T cells to regain the ability to proliferate
Glc- and Gln-starvation-induced cell death in shY/T cells ([4]; −Glc or −Gln): did not prevent cell death
AKT phosphorylation in shY/T cells ([3]; shY/T SN12C cells after addition of EGF): partially rescued AKT phosphorylation

CNc1ncc2cc(-c3cc(NC(=O)NCCC(C)(C)C)c(F)cc3C)c(C)nc2n1 [LY3009120]
pERK levels in shY/T cells [1, 7]: inhibited pERK levels
pAKT levels in Ctrl cells [3]: did not reduce pAKT levels

O=C(O)O [Bicarbonate, NaHCO3]
pERK levels in Ctrl cells ([1]; Ctrl cells): raised pERK levels

CO/C1=C\C(C)=C\[C@@H](C)[C@@H](O)[C@@H](C)C/C(C)=C/C=C/[C@H](OC)[C@@H]([C@@H](C)[C@@H](O)[C@H](C)[C@@]2(O)C[C@@H](O)[C@H](C)[C@@H](C(C)C)O2)OC1=O [bafilomycin]
intracellular calcium concentration (shY/T SN12C cells [5]): significantly reduced pH and calcium levels
media pH (shY/T SN12C cells [6]): significantly reduced pH
bafilomycin-mediated ERK inhibition with exogenous HCO3− ([1]; shY/T SN12C, 3 h, 0.3 μM Baf and/or 25 mM NaHCO3): rescued by the addition of exogenous HCO3^−
pERK levels in shY/T cells with increasing concentrations ([1]; shY/T SN12C): inhibited ERK phosphorylation in a dose-dependent manner
sensitivity of NF2-mutant cells to lysosomal inhibition upon YAP/TAZ depletion [2]: increased the sensitivity of NF2-mutant cells to lysosomal inhibition, especially under nutrient-deprived conditions

[Ca+2].[Cl-].[Cl-] [calcium, CaCl2]
pERK levels in Ctrl cells ([1]; Ctrl cells): increased pERK levels

CC(C)NCC(O)c1ccc(NS(C)(=O)=O)cc1 (centres unmarked) [Sotalol]
pERK levels in shY/T cells [1, 7]: none of the GPCR inhibitors reduced ERK phosphorylation

Nc1ncnc2c1ncn2[C@@H]1O[C@@H]2COP(O)(=S)O[C@H]2[C@H]1O (some centres unmarked) [Rp-cAMP]
pERK levels in shY/T cells [1, 7]: specifically inhibited ERK phosphorylation
pAKT levels in Ctrl cells [3]: without affecting pAKT

CN=c1nc(-c2ccccc2)n(-c2ccccc2)s1 [SCH 202676]
pERK levels in shY/T cells [1, 7]: none of the GPCR inhibitors reduced ERK phosphorylation
